Values of other authors, collected in US20100136106A1, “Modified Release Famciclovir Compositions” (priority 2005, published 2010).
Read-outs that look alike come from different tables or passages of the source. One block for each compound: values may come before it.

Columns and labels:
[1] = for metabolite, % of the dose in the urine: in vivo, po
[2] = for AUC(0-∞) / Cmax / Tmax: healthy male volunteers
[3] = below 85% relative humidity
[4] = for solubility in water: 25° C.
[5] = not given; remark: listed apart in the source
[6] = not given; remark: listed apart in the source
[7] = test system: cytochrome P450; conditions: human liver microsomes
[8] = single 500 mg oral dose of radiolabeled famciclovir
[9] = 5 mg/kg radiolabeled penciclovir, 1-hour infusion
[10] = intravenous penciclovir
[11] = 500 mg famciclovir t.i.d. for 7 days
[12] = test system: viral DNA polymerase; conditions: competitively with deoxyguanine triphosphate
[13] = 500 mg famciclovir single oral dose, patients with herpes zoster

Compound: CC(=O)OCC(CO)CCn1cnc2cnc(N)nc21 (stereo not drawn) [6-deoxy monoacetylated penciclovir]
metabolite, % of the dose in the urine [1]: < 0.5%

Compound: Nc1ncc2ncn(CCC(CO)CO)c2n1 [6-deoxy penciclovir]
metabolite, % of the dose in the urine [1]: 5%

Compound: CC(=O)OCC(CCn1cnc2cnc(N)nc21)COC(C)=O [famciclovir, 2-[2-(2-amino-9H-purin-9-yl)ethyl]-1,3-propanediol diacetate]
AUC(0-∞) ([2]; 125 mg single oral dose): 2240 ng·h/mL | Cmax ([2]; 125 mg single oral dose): 800 ng/mL | Tmax ([2]; 125 mg single oral dose): 54 min | AUC(0-∞) ([2]; 250 mg single oral dose): 4480 ng·h/mL | Cmax ([2]; 250 mg single oral dose): 1600 ng/mL | Tmax ([2]; 250 mg single oral dose): 54 min | AUC(0-∞) ([2]; 500 mg single oral dose): 8950 ng·h/mL | Cmax ([2]; 500 mg single oral dose): 3300 ng/mL | Tmax ([2]; 500 mg single oral dose): 54 min | partition coefficient P (octanol/phosphate buffer (pH 7.4)): 2.08 | partition coefficient P (octanol/water (pH 4.8)): 1.09 | famciclovir detected in plasma or urine ([1]; oral administration of famciclovir): Little or no | hygroscopicity [3]: not hygroscopic | solubility in acetone [4]: freely soluble | solubility in ethanol [4]: sparingly soluble | solubility in isopropanol [4]: sparingly soluble | solubility in methanol [4]: freely soluble | solubility in water ([4]; initially): > 25 % w/v | decrease in Cmax ([5]; given 2 hours after a meal compared to 2 hours before a meal): 18% | effect of food on absorption ([5]; regular doses): does not affect the extent of absorption | AUC (mean±SD) [6, 13]: 12100 ± 1700 ng·h/mL | Cmax (mean±SD) [6, 13]: 4000 ± 700 ng/mL | Tmax (mean±SD) [6, 13]: 42 ± 12 min | role of cytochrome P450 in famciclovir metabolism [7]: does not play an important role | administered radiolabeled dose collected in urine ([8]; first 6 hours): Approximately 60% | administered radioactivity recovered in feces ([8]; over 72 hours): 27% | administered radioactivity recovered in urine ([8]; over 72 hours): 73%

Compound: penciclovir triphosphate
inhibition of viral DNA polymerase [12]: inhibit viral DNA polymerase competitively

The next lines start with the values.

metabolite, % of the dose in the urine [1]: < 0.5%
Compound: CC(=O)OCC(CO)CCn1cnc2c(=O)[nH]c(N)nc21 (stereo not drawn) [monoacetylated penciclovir]

solubility in water ([4]; monohydrate that precipitates): 2-3 % w/v
Compound: CC(=O)OCC(CCn1cnc2cnc(N)nc21)COC(C)=O [monohydrate]

dose proportionality of penciclovir concentrations ([2]; famciclovir dose range of 125 mg to 750 mg, single dose): increased in proportion to dose | share of the radioactivity excreted in the urine [9]: 91% | dose excreted in urine ([9]; first 6 hours): 83% | administered radioactivity recovered in urine ([9]; over 24 hours): Approximately 94% | renal clearance as share of total plasma clearance [10]: 74.5±8.8% | accumulation of penciclovir [11]: no accumulation | decrease of penciclovir Cmax with food ([5]; capsule formulation of famciclovir with food (approximately 910 Kcal and 26% fat)): approximately 50% | AUC of penciclovir greater in patients with herpes zoster as compared to healthy volunteers ([6]; 500 mg famciclovir oral): approximately 35% | half-life ([6]; seven patients with herpes zoster): 180 ± 66 min | share of the radioactivity excreted in the urine [8]: 82%
Compound: Nc1nc2c(ncn2CCC(CO)CO)c(=O)[nH]1 [penciclovir]
